One compound from patent US20100069244A1, “Pyridine Compounds for Combating Pests” (priority 2006, published 2010) can be followed below.

Usually mortality stands for the share of the test organisms that died.

The test deals with Colorado Potato Beetle (Leptinotarsa decemlineata). Description: Activity against Colorado potato beetle, potato leaf dip. Conditions: foliar, 120 h, read-out: mortality compared to 0% mortality of untreated controls. In kind it is in vivo. On the procedure:
6. Activity Against Colorado Potato Beetle (Leptinotarsa decemlineata)
Potato plants were utilized for bioassays. Excised plant leaves were dipped into 1:1 acetone/water dilutions of the active compounds. After the leaves had dried, they were individually placed onto water-moistened filter paper on the bottoms of Petri dishes. Each dish was infested with 5 to 7 larvae and covered with a lid. Each treatment dilution was replicated 4 times. Test dishes were held at approximately 27° C. and 60% humidity. Numbers of live and morbid larvae were assessed in each dish at 5 days after treatment application, and percent mortality was calculated.

`CC(C)N1CC[C@H]1COc1cncc(Cl)c1` [Ia-155, 3-Chloro-5-((S)-1-isopropyl-azetidin-2-ylmethoxy)-pyridine]: the mortality at 300 ppm was greater than 50%.
